Experimental data published in US20240116961A1, “TRIPHENYPHOSPHINE MODIFIED SERTRALINE DERIVATIVE AND METHODS THEREOF” (XIAMEN UNIVERSITY, priority 2022, published 2024).

Assays:
tumor cells = assay: Mitophagy by transmission electron microscopy; assay type: cell-based; settings: concentration 0.3 μM, work time 3 hours; FIG. 3
Description: • (1) Apparatus: Transmission electron microscope Hitachi HT-7800 • (2) Reagent: glutaraldehyde • (3) Experimental method: cells are inoculated in a 6 cm diameter Petri dish and incubated with the compounds for 3 hours. The culture solution is poured out; a 2 mL glutaraldehyde working solution (2.5% glutaraldehyde and phosphate buffer (PB) system) restored to room temperature is added and put into a refrigerator at 4° C. after fixation for 15 minutes at room temperature; the fixation solution is diluted 2-3 times with PB after fixation for 2-3 hours, the PB used for washing is poured off, PB containing 5% Bovine albumin (BSA) is added with an amount of 1 mL, and the adherent fixed cells are scraped off using a cell scraper, collected into 1.5 mL centrifuge tubes, and centrifuged for 4-5 minutes at 2,500 revolutions per minute (rpm) at 4° C. to prepare samples. The images are analyzed by a transmission electron microscope.

[1] = Immunohistochemistry of heart, liver, spleen, lung and kidney in tumor-bearing mice; assay type: in vivo, BALB/c (nu/nu) nude mice; settings: 1 mg/kg intraperitoneal injection once a day for 15 days; FIG. 6
Description: BALB/c (nu/nu) nude mice (with weights of 18-20 g and raised in an SPF-level animal room) are selected to construct a mouse transplantation tumor model in vitro, the mice are grouped and inoculated with human non-small cell lung cancer cells (A549), and tumor volumes in the mice grow to 100-300 mm^3. The drug is administered by intraperitoneal injection, and each mouse in an administration group is administered once a day and 1 mg/kg once according to body weight. In a control group, each mouse is administrated with a same volume of PBS buffer, the volume of each mouse is measured simultaneously, and the drug is continuously administered for 15 days. After the drug administration and treatment process is complete, the mice are killed by cervical dislocation, and the mouse tumors are stripped, photographed, and weighed.

SMILES: CN(C(=O)CC[P+](c1ccccc1)(c1ccccc1)c1ccccc1)[C@H]1CC[C@@H](c2ccc(Cl)c(Cl)c2)c2ccccc21 [Mito-2-Ser, (3-(((1S,4S)-4-(3,4-dichlorophenyl)-1,2,3,4-tetrahydronaphthalen-1-yl)(methyl)amino)-3-propanoyl)triphenylphosphine]
- autophagosome formation / mitophagy (tumor cells): induce autophagosome formation to phagocytize mitochondria

SMILES: CN(C(=O)CCCCCCCCCC[P+](c1ccccc1)(c1ccccc1)c1ccccc1)[C@H]1CC[C@@H](c2ccc(Cl)c(Cl)c2)c2ccccc21 [Mito-10-Ser, (11-(((1S,4S)-4-(3,4-dichlorophenyl)-1,2,3,4-tetrahydronaphthalen-1-yl)(methyl)amino)-11-oxoundecyl)triphenylphosphine]
- toxic side effects (heart, liver, spleen, lung, kidney) [1]: did not have significant toxic side effects

SMILES: CN(C(=O)CCCCCCCCCCCC[P+](c1ccccc1)(c1ccccc1)c1ccccc1)[C@H]1CC[C@@H](c2ccc(Cl)c(Cl)c2)c2ccccc21 [Mito-12-Ser, (13-(((1S,4S)-4-(3,4-dichlorophenyl)-1,2,3,4-tetrahydronaphthalen-1-yl)(methyl)amino)-13-oxytridecyl)triphenylphosphine]
- autophagosome formation / mitophagy (tumor cells): induce autophagosome formation to phagocytize mitochondria
